According to patent US20120289492A1, “METHODS OF TREATING MITOCHONDRIAL DISORDERS USING METALLOPORPHYRINS” (priority 2009, published 2012):
pIC50: −log10 of the molar value. “Also recorded” adds a separate entry of the source.

Legend:
[1] = system: kainate-induced epileptogenesis in rats; assay: Kainate-induced chronic epilepsy development (rat model of temporal lobe epilepsy); format: in vivo
Method: The rat model of temporal lobe epilepsy is initiated by a single injection of a chemoconvulasant agent which results in spontaneous epileptic seizure arise several days to weeks thereafter. Groups of rats administered vehicle, kainate (a chemoconvulsant used to initiate injury), kainate+AEOL11207 and AEOL11207 were monitored 6 weeks for behavioral seizures and indices of oxidative stress (GSH/GSSG, CoASH/CoASSG). AEOL11207 was administered at an arbitrary dose of 5 mg/kg, s.c. daily beginning 6 hr after injection of kainate (11 mg/kg). All of the rats in both groups experienced SE after kainate injection, and there was no difference in any of the characteristics of SE between the groups. […] The time to develop chronic epilepsy (latency to chronic epilepsy), spontaneous seizure frequency, severity and duration was determined.
In another exemplary experiment, pharmacological removal of ROS was examined for its inhibition on kainate-induced epileptogenesis. A pilot was performed in which groups of rats administered vehicle (n=4), kainate (n=6), kainate+AEOL11207(n=6) and AEOL11207 (n=4) were monitored 6 weeks for behavioral seizures (Table 1) and indices of oxidative stress (GSH/GSSG, CoASH/CoASSG) (FIG. 6).
AEOL11207 was administered at a dose of 5 mg/kg, s.c. daily beginning 6 hr after injection of kainate ([…]). All of the rats in both groups experienced SE after kainate injection, and there was no difference in any of the characteristics of SE between the groups. […] The time to develop chronic epilepsy (latency to chronic epilepsy), spontaneous seizure frequency, severity and duration was determined as previously described. […] None of the rats in the control or AEOL11207 alone groups developed seizures. […] FIG. 6 and Table 1 illustrate the effect of AEOL11207 on kainate-induced chronic epilepsy development (n=6/group) and oxidative stress (n=4-6 per group).

[2] = system: forebrain of Sod2−/− mice; assay: Mitochondrial oxidative stress and bioenergetic indices in brain of Sod2−/− mice; format: in vivo
[3] = Scavenging of reactive oxygen species in cell-free systems and isolated mitochondria; format: biochemical
[4] = Peroxynitrite-induced oxidation of dihydrorhodamine-123; format: biochemical; conditions: peroxynitrite 1 μM, dihydrorhodamine 123 10 μM, pH 7.4
Excerpt: Mitochondrial oxidative stress production To determine if increased oxidative stress occurred in mitochondrial fractions, the levels of CoASH, CoASSG, aconitase, ascorbate, cysteine, methionine and 3-NT were examined in the forebrain of Sod2 −/− mice at 15-16 days old. GSH is the most abundant thiol containing antioxidant in tissues and brain (Meister & Anderson (1983) Annu Rev Biochem 52, 711-60) and plays an important role in preventing oxidative damage. […] To determine if direct scavenging of ONOO− could result in decreased 3NT levels by AEOL11207, we measured its ability to inhibit ONOO-induced oxidation of dihydrorhodamine-123.
Measurement of peroxynitrite-induced oxidation of dihydrorhodamine-123 inhibition by metalloporphyrins The peroxynitrite-dependent oxidation of dihydrorhodamine-123 to rhodamine-123 is measured based on previously described methods (Kooy et al. (1994) Free Radic Biol Med 16, 149-56; Szabo, et al. (1996) FEBS Lett 381, 82-6). […] After 10 min incubation at room temperature, the fluorescence of rhodamine 123 was measured using a fluorimeter (Perkin-Elmer, Norwalk, Conn.) at an excitation wavelength of 500 nm, emission wavelength of 536 nm

mouse lymphoma = assay: Mouse lymphoma test (mutagenicity); format: cell-based
Excerpt: Safety profile: A prototypical metalloporphyrin (AEOL10150; FIG. 1) has completed phase 1 trials in amyotrophic lateral sclerosis patients. Extensive safety studies of this compound have been completed in mice, monkeys and rats. […] Safety studies for the structurally related compound, AEOL11207 need to be completed once its efficacy is established in animal studies.

B6D2F2 Sod2−/− mice = assay: Behavioral seizure evaluation and survival of Sod2−/− mice
Excerpt: The model utlizes cross-bred C57BL6XDBA2F2 (B6D2) mutant mice lacking manganese superoxide dismutase (MnSOD or Sod2), a critical mitochondrial antioxidant.
Chronic Video Monitoring and Seizure Scoring: Sod2−/− mice and wild type littermates aged P7-˜P21 are digitally recorded 8 hrs/day in a custom designed plexiglass cage using a Q-See QD14B video monitoring system connected to a recordable DVD. DVD recordings are saved and reviewed by a trained observer blind to genotype and/or treatment for scoring of seizure severity, duration, and frequency. Seizure severity will be rated using the following scale: 1=immobilization & staring, 2=head-nodding, occasional forelimb clonic and tonic activity, 3=continuous forelimb clonic and tonic activity, 4=generalized seizures with falling, running and jumping.
The mutant mice were monitored on a daily basis to get an accurate birth and death data. Pups were not culled or handled before P5 to avoid maternal rejection.
Metalloporphyrin (AEOL11207) administration B6D2F1 Sod2−/− mice and their wild-type littermates (control mice) were treated with AEOL11207 (5 mg/kg) or vehicle by subcutaneous (s.c.) injection daily starting at 5 days of age until death or being sacrificed. AEOL11207 was dissolved in dimethyl sulfoxide (DMSO) and diluted with sterilized phosphate buffered saline (PBS) to achieve the desired final concentration (1% DMSO). The control animals were injected with sterilized PBS containing 1% DMSO. The animals were divided into four different groups: 1) control mice +vehicle; 2) B6D2F1 Sod2−/− mice+vehicle; 3) control mice +AEOL11207; 4) B6D2F1 Sod2−/− mice +AEOL11207. The treated and untreated mice were sacrificed at 15-16 days old for pathology and biochemistry assays or until death for survival and seize behavioral evaluation.
During the weaning period (P15-P18) mice were recorded in the presence of their mothers, and individually thereafter. Video was digitally recorded (Panasonic DMR-ES 15) and stored on DVD-R′s for observation and quantification of seizure number, duration, frequency, and severity by an observer blind to treatments. Seizure severity was scored according to the following scale: 1=immobilization and staring, 2=head-nodding, shaking, 3=forelimb tonic/clonic activity, 4=continuous forelimb tonic/clonic activity with falling, running or jumping. Due to the presence of abnormal gait and posturing in Sod2^−/− mice, only spontaneous motor seizures with scores>3 were included for comparison between groups. The scoring and analysis was conducted by an investigator blinded to genotype and treatment.
Statistical analyses Survival analysis was performed using the Kaplan-Meier method. […] P values less than 0.05 were considered significant.

[5] = system: mitochondrial SOD activity; assay: SOD2 activity assay in forebrain mitochondrial fractions; format: in vivo; conditions: treated Sod2−/− mice vs Sod2+/+ mice (1.56±0.17 units/mg protein)
[6] = kainate rats, compared to controls
[7] = the 2 rats of the kainate+AEOL11207 group that developed epilepsy
[8] = forebrain mitochondrial fraction of Sod2−/− mice
[9] = Sod2−/− mice, 5 mg/kg s.c. daily from P5, vs vehicle, 5 mg/kg

COC(=O)c1c2nc(c(C(F)(F)F)c3ccc([n-]3)c(C(=O)OC)c3nc(c(C(F)(F)F)c4ccc1[n-]4)C=C3)C=C2.[Cl-].[Mn+3] [AEOL11207]
rats that developed seizures ([1]; AEOL11207 alone group, no kainate): None
rats that developed chronic epilepsy during 6 weeks ([1]; in comparison with two-thirds in the kainate group): one-third
Duration of seizures (sec.) ([1]; kainate + 5 mg/kg s.c. daily, kainate alone 33.3 ± 1.9): 28.3 ± 2.2*p < 0.05 sec.
CoASH/CoASSG ratio [1, 6]: significantly improved
GSH/GSSG ratio [1, 6]: significantly improved
decrease of seizure duration [1, 7]: ~15%
number of seizures per animal [1, 7]: no changes
depletion of ascorbate ([2]; brains of Sod2−/− mice): significantly attenuated
depletion of glutathione ([2]; brains of Sod2−/− mice): significantly attenuated
decrease in cysteine [2, 8]: significantly attenuated
decrease in methionine [2, 8]: significantly attenuated
increased CoASSG ([2]; forebrain of Sod2−/− mice, 15-16 days old): significantly attenuated
decrease in glutamate transporter GLT-1 expression ([2]; hippocampus of Sod2−/− mice, Western blot): significantly attenuated
scavenging of mitochondrial O2-, H2O2 and lipid peroxides [3]: catalytically scavenges
pIC50 [4]: 5.43
mutagenicity, mouse lymphoma test (mouse lymphoma): negative
Sod2−/− mice surviving beyond 15 days old (B6D2F2 Sod2−/− mice; 5 mg/kg daily, vehicle ~48%): all
Sod2−/− mice exhibiting spontaneous tonic-clonic seizures (B6D2F2 Sod2−/− mice; P15-P20, daily observation, all vehicle-treated mice): 37%
frequency of spontaneous behavioral seizures (B6D2F2 Sod2−/− mice; [9]): significantly decreased; also recorded: decrease; also recorded: significantly attenuates
seizure severity (B6D2F2 Sod2−/− mice; [9]): but not seizure duration or severity; also recorded: no significant changes
total number of spontaneous behavioral seizures (B6D2F2 Sod2−/− mice; [9]): decrease; also recorded: significantly attenuates
average lifespan (B6D2F2 Sod2−/− mice; Sod2−/− mice, 5 mg/kg s.c. daily starting at 5 days of age, 5 mg/kg): 20.33 ± 2.00 days
average lifespan (B6D2F2 Sod2−/− mice; Sod2−/− mice, 5 mg/kg s.c. daily starting at 5 days of age, listed as AEOL 11207, 5 mg/kg): 20.383 ± 0.43 days
average lifespan (B6D2F2 Sod2−/− mice; Sod2−/− mice, daily treatment 2.5 mg/kg): no significant increase
behavioral seizure characteristics / seizure parameters (B6D2F2 Sod2−/− mice; Sod2−/− mice, s.c. from postnatal day 5): attenuates; also recorded: significantly attenuated; also recorded: ameliorates
Cyanide insensitive SOD activity compared to Sod2+/+ mice [5]: ~40%
